Reference: patent publication US9051299B2, “Imidazolyl methyl piperidine T-type calcium channel antagonists” (Merck Sharp & Dohme Corp., priority 2012, dated 2015)

Legend:
[1] = target: T1, T-type calcium channel A1i (alpha-1I, CaV 3.3) (Homo sapiens, UniProt Q9P0X4); assay: FLIPR Ca2+ Flux Assay, hyperpolarized state; type: cell-based; conditions: measure of the ability to inhibit T-type calcium channel, read-out: Ali Hyperpolarized
T1 construct: expressed in transfected cells; host or cells: HEK 293 cells, tetracycline-inducible expression (Zeocin/Blasticidin selection)

[2] = target: T1, T-type calcium channel A1i (alpha-1I, CaV 3.3); assay: FLIPR Ca2+ Flux Assay, depolarized state; type: cell-based; conditions: measure of the ability to inhibit T-type calcium channel

T1 sequence (Q9P0X4 whole entry): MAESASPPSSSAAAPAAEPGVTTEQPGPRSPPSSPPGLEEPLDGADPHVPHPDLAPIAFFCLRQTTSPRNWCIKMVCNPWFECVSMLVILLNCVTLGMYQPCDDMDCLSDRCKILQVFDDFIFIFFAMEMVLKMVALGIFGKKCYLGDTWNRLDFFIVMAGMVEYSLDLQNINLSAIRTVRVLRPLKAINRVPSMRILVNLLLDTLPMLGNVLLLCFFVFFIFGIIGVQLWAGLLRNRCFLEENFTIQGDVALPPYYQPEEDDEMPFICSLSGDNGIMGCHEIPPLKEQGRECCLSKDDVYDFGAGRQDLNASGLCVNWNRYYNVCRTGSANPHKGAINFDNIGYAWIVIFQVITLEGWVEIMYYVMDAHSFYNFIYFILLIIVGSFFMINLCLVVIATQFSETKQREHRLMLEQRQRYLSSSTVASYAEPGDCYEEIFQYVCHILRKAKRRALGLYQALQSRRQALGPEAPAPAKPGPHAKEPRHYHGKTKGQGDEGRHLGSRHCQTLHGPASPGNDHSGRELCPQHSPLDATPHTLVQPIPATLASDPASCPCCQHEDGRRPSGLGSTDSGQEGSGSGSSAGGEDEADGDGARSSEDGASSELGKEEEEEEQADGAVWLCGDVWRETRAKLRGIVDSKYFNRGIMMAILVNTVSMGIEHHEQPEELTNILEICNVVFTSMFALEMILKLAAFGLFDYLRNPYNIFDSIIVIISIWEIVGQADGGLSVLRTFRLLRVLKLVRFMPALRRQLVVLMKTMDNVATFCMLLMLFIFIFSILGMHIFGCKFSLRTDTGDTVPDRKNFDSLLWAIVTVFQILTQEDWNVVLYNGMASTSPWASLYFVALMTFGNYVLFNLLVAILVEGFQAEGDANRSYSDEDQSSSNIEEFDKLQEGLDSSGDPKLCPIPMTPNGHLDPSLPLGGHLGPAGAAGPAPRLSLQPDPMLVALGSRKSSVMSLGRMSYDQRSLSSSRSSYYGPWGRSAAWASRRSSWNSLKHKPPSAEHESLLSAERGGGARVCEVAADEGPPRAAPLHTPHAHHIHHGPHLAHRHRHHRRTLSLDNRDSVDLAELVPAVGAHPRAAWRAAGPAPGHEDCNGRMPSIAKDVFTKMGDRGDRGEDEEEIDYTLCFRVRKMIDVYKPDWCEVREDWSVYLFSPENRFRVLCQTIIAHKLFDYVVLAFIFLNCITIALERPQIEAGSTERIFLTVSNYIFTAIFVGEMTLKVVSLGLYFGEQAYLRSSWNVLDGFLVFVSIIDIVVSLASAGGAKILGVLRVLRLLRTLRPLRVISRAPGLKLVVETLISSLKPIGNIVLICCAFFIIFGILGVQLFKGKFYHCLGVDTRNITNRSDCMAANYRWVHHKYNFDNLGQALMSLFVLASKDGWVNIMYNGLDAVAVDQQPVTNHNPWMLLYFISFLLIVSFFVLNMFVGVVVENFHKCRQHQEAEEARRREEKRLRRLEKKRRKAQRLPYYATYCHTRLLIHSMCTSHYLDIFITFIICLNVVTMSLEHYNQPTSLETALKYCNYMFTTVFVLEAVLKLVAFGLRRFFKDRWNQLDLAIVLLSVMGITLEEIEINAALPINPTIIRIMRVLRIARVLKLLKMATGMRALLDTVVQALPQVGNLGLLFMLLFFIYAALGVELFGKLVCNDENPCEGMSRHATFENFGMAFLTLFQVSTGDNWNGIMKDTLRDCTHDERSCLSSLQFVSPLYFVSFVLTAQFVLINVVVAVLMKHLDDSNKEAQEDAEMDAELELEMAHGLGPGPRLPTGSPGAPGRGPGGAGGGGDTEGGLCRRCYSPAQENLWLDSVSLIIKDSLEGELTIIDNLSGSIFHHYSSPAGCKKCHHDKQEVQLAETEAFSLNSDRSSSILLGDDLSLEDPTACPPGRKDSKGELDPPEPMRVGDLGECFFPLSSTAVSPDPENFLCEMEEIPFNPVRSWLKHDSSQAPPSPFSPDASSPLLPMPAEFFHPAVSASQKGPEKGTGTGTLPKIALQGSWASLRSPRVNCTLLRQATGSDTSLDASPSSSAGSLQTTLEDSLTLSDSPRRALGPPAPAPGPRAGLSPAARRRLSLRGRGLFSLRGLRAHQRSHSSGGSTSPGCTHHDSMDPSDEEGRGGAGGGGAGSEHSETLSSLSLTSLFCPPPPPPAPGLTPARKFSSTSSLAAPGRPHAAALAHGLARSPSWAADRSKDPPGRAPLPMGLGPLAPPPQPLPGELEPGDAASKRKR

Row | IC50 [1] [nM] | IC50 [2] [nM] | SMILES
1 | 7600 | > 10000 | Cc1nc(CN2CCC(C(=O)c3cccc(C(F)(F)F)c3)CC2)c[nH]1 [Example 9, [1-[(2-methyl-1H-imidazol-4-yl)methyl]-4-piperidyl]-[3-(trifluoromethyl)phenyl]methanone]
2 | 155 | 2870 | O=C(c1ccc2nonc2c1)C1CCN(Cc2c[nH]c(-c3ccccc3)n2)CC1 [Example 4, 2,1,3-benzoxadiazol-5-yl-[1-[(2-phenyl-1H-imidazol-4-yl)methyl]-4-piperidyl]methanone]
3 | 313 | 4620 | Cc1cccc(C(=O)C2CCN(Cc3c[nH]c(-c4ccccc4)n3)CC2)c1 [Example 8, m-tolyl-[1-[(2-phenyl-1H-imidazol-4-yl)methyl]-4-piperidyl]methanone]
4 | 129 | 2090 | O=C(c1cccc(Cl)c1)C1CCN(Cc2c[nH]c(-c3ccccc3)n2)CC1 [Example 3, (3-chlorophenyl)-[1-[(2-phenyl-1H-imidazol-4-yl)methyl]-4-piperidyl]methanone]
5 | 6900 | > 10000 | CCc1nc(C)c(CN2CCC(C(=O)c3cccc(C(F)(F)F)c3)CC2)[nH]1 [Example 10, [1-[(2-ethyl-4-methyl-1H-imidazol-5-yl)methyl]-4-piperidyl]-[3-(trifluoromethyl)phenyl]methanone]
6 | 242 | 3180 | O=C(c1ccc(F)cc1)C1CCN(Cc2c[nH]c(-c3ccccc3)n2)CC1 [Example 2]
7 | 644 | 7090 | Cc1ccc(C(=O)C2CCN(Cc3c[nH]c(-c4ccccc4)n3)CC2)cc1 [Example 7, [1-[(2-phenyl-1H-imidazol-4-yl)methyl]-4-piperidyl]-(p-tolyl)methanone]
8 | 1060 | > 10000 | COc1ccc(C(=O)C2CCN(Cc3c[nH]c(-c4ccccc4)n3)CC2)cc1 [Example 6, (4-methoxyphenyl)-[1-[(2-phenyl-1H-imidazol-4-yl)methyl]-4-piperidyl]methanone]
9 | 686 | 4060 | O=C(c1ccc(F)c(F)c1)C1CCN(Cc2c[nH]c(-c3ccccc3)n2)CC1 [Example 5, (3,4-difluorophenyl)-[1-[(2-phenyl-1H-imidazol-4-yl)methyl]-4-piperidyl]methanone]
10 | 70 | 742 | O=C(c1cccc(C(F)(F)F)c1)C1CCN(Cc2cnc(-c3ccccc3)[nH]2)CC1 [Example 1, (1-((2-Phenyl-1H-imidazol-5-yl)methyl)piperidin-4-yl)(3-(trifluoromethyl)phenyl)-methanone]
